pIC50: −log10 of the molar value. Activity calls are given as the source filed them. No cut-off for these calls is given here.
Assays:
[1] = Volume of distribution at steady state in ICR mouse at 2 mg/kg, iv measured after 24 hrs by LC-MS/MS analysis; type: ADME, organism-based; conditions: in vivo
[2] = system: MIA PaCa-2; assay: Antiproliferative activity against human MIA PaCa-2 cells expressing KRAS G12C mutant assessed as reduction of cell growth by measuring fold decrease in IC50 incubated for 72 hrs in presence of Linsitinib by CCK-8 assay; type: functional
[3] = system: von Hippel-Lindau disease tumor suppressor/GTPase KRas (Homo sapiens), P01116+P40337 [G12C]; assay: Protac activity at VHL/KRAS G12C mutant in human MIA PaCa-2 cells assessed as induction of protein degradation in presence of VH032 by Western blot analysis; type: cell-based
[4] = system: NCI-H358; assay: Synergistic antiproliferative activity against human NCI-H358 cells expressing KRAS G12C mutant assessed as combination index at 30 nM incubated for 72 hrs in presence of […] by CCK-8 assay; type: functional
[5] = system: Calu-1; assay: Antiproliferative activity against human Calu-1 cells expressing KRAS G12C mutant assessed as relative cell viability at 30 nM incubated for 72 hrs in presence of crizotinib by CCK-8 assay; type: functional; conditions: read-out: Activity
[6] = system: MIA PaCa-2; assay: Induction of apoptosis in human MIA PaCa-2 cells assessed as early apoptotic cells at 30 nM incubated for 48 hrs by Annexin V-FITC staining based flow cytometry analysis (reference value: 1.55 %); type: functional
[7] = system: von Hippel-Lindau disease tumor suppressor/GTPase KRas (Homo sapiens), P01116+P40337 [G12C]; assay: PROTAC activity at VHL/KRAS G12C mutant in human MIA PaCa-2 cells assessed as induction of protein degradation in presence of AMG510 by Western blotting analysis; type: cell-based
[8] = system: MIA PaCa-2; assay: Antiproliferative activity against human MIA PaCa-2 cells expressing KRAS G12C mutant assessed as relative cell viability at 30 nM incubated for 72 hrs in presence of infigratinib by CCK-8 assay; type: functional; conditions: read-out: Activity
[9] = system: von Hippel-Lindau disease tumor suppressor/GTPase KRas (Homo sapiens), P01116+P40337 [G12C]; assay: PROTAC activity at VHL/KRAS G12C mutant in human NCI-H358 cells assessed as induction of protein degradation at 100 nM incubated for 1 to 8 days by Western blotting analysis; type: cell-based; conditions: time 1-8 day
[10] = system: MIA PaCa-2; assay: Antitumor activity against human MIA PaCa-2 cells xenografted in BALB/c nude mouse assessed as tumor growth inhibition at 30 mg/kg, ip measured after 8 days relative to control; type: functional; conditions: MIA PaCa-2, 192 h, time 8 day, read-out: TGI
[11] = system: NCI-H358; assay: Induction of apoptosis in human NCI-H358 cells assessed as late apoptotic cells at 300 nM incubated for 48 hrs by Annexin V-FITC staining based flow cytometry analysis (reference value: 5.20 %); type: functional
[12] = system: MIA PaCa-2; assay: Inhibition of cell migration in human MIA PaCa-2 cells incubated for 12 hrs by wound healing assay; type: functional, cell-based; conditions: dose 30-300 nM
[13] = system: MIA PaCa-2; assay: Antiproliferative activity against human MIA PaCa-2 cells expressing KRAS G12C mutant assessed as reduction of cell growth by measuring fold decrease in IC50 incubated for 72 hrs in presence of SHP099 by CCK-8 assay; type: functional
[14] = system: NCI-H358; assay: Inhibition of cell migration in human NCI-H358 cells incubated for 12 hrs by wound healing assay; type: functional, cell-based; conditions: dose 30-300 nM
[15] = system: SW837; assay: Antiproliferative activity against human SW837 cells expressing KRAS G12C mutant assessed as relative cell viability at 30 nM incubated for 72 hrs in presence of infigratinib by CCK-8 assay; type: functional; conditions: read-out: Activity
[16] = system: SW837; assay: Antiproliferative activity against human SW837 cells expressing KRAS G12C mutant assessed as relative cell viability at 30 nM incubated for 72 hrs by CCK-8 assay; type: functional; conditions: read-out: Activity
[17] = system: NCI-H358; assay: Induction of cell cycle arrest in human NCI-H358 cells assessed as accumulation of cells at G2/M phase incubated for 48 hrs by propidium iodide staining based flow cytometry analysis; type: functional; conditions: dose 30-300 nM
[18] = system: MIA PaCa-2; assay: Antiproliferative activity against human MIA PaCa-2 cells expressing KRAS G12C mutant assessed as relative cell viability at 30 nM incubated for 72 hrs in presence of MK-2206 by CCK-8 assay; type: functional; conditions: read-out: Activity
[19] = system: HepG2; assay: Antiproliferative activity against human HepG2 cells expressing KRAS assessed as inhibition of cell growth incubated for 72 hrs by CCK-8 assay; type: functional, cell-based; conditions: HepG2, 72 h
[20] = system: MIA PaCa-2; assay: Antiproliferative activity against human MIA PaCa-2 cells expressing KRAS G12C mutant assessed as relative cell viability at 30 nM incubated for 72 hrs in presence of naporafenib by CCK-8 assay; type: functional; conditions: read-out: Activity
[21] = system: SW837; assay: Antiproliferative activity against human SW837 cells expressing KRAS G12C mutant assessed as relative cell viability at 30 nM incubated for 72 hrs in presence of daclolisib by CCK-8 assay; type: functional; conditions: read-out: Activity
[22] = system: MIA PaCa-2; assay: Induction of apoptosis in human MIA PaCa-2 cells assessed as viable cells at 100 nM incubated for 48 hrs by Annexin V-FITC staining based flow cytometry analysis (reference value: 91.5 %); type: functional; conditions: read-out: Activity
[23] = system: von Hippel-Lindau disease tumor suppressor/GTPase KRas (Homo sapiens), P01116+P40337 [G12C]; assay: PROTACactivity at VHL/KRAS G12C mutant in human NCI-H358 cells assessed as induction of protein degradation by measuring maximal efficacy incubated for 72 hrs by Western blot analysis relative to control; type: cell-based
[24] = system: MIA PaCa-2; assay: Antiproliferative activity against human MIA PaCa-2 cells expressing KRAS G12C mutant assessed as relative cell viability at 30 nM incubated for 72 hrs in presence of selumetinib by CCK-8 assay; type: functional; conditions: read-out: Activity
[25] = system: Calu-1; assay: Antiproliferative activity against human Calu-1 cells expressing KRAS G12C mutant assessed as relative cell viability at 30 nM incubated for 72 hrs in presence of naporafenib by CCK-8 assay; type: functional; conditions: read-out: Activity
[26] = system: Calu-1; assay: Antiproliferative activity against human Calu-1 cells expressing KRAS G12C mutant assessed as relative cell viability at 30 nM incubated for 72 hrs in presence of infigratinib by CCK-8 assay; type: functional; conditions: read-out: Activity

Q: What does the source list for `C=CC(=O)N1CCN(c2nc(=O)n(-c3c(C)ccnc3C(C)C)c3nc(-c4c(F)cccc4OCC4CCN(CCCC(=O)N[C@H](C(=O)N5C[C@H](O)C[C@H]5C(=O)NCc5ccc(-c6scnc6C)cc5)C(C)(C)C)CC4)c(F)cc23)[C@@H](C)C1`?
A: Vdss [1]: 2 L/kg; fold change (FC) [2]: ~3; Activity [3]: inactive; CI [4]: <1; viability at 0.03 µM [5]: 0.31%; Activity [6]: 2.66%; Activity [7]: inactive; viability at 0.03 µM [8]: 0.35%; Activity [9]: Active; inhibition in vivo at 30 mg/kg [10]: > 100%; Activity [11]: 14.6%; inhibition [12]: Dose-Dependent Effect; fold change (FC) [13]: ~4; inhibition [14]: Dose-Dependent Effect; viability at 0.03 µM [15]: 0.34%; viability at 0.03 µM [16]: 0.77%; Activity [17]: Dose-Dependent Effect; viability at 0.03 µM [18]: 0.24%; pIC50 [19]: < 5.00; viability at 0.03 µM [20]: 0.27%; viability at 0.03 µM [21]: 0.24%; viability at 0.1 µM [22]: 75.7%; Emax [23]: > 95%; viability at 0.03 µM [24]: 0.1%; viability at 0.03 µM [25]: 0.44%; viability at 0.03 µM [26]: 0.36%

Reference: ChEMBL document CHEMBL5634141 (Eur J Med Chem, 2023)
